What was measured:
Assay type in all cases: in vivo, mouse
mdr1a^−/− mice = assay: mdr1a−/− mice given chlorinated drinking water as IBD model: clinical signs, body weight, colon and caecum weights; details: for Body weight (Mean ± s.e.m.): end of study; for Growth rate (Mean ± s.e.m.): over study period
Text: Forty male mdr1a^−/− mice (strain FVB.129P2-Pgy3^tm1 N7) and six control male mice (mdr1a^+/+) from the same genetic background (FVB; strain FVB/NTac) (6-8 weeks old) were obtained from Taconic Farms (U.S.A). Mice were individually housed in solid bottom cages containing autoclaved Bee Kay bedding from Bantin & Kingman (U.K.) with the addition of Envirodri, a nesting material made from virgin paper, free from deodorising chemicals, to provide enrichment. Mice were fed on RAT & Mouse No 1 maintenance diet (RMI (E) SQC) (Special Diet services, Witham, Essex, U.K.) on arrival at Pfizer. For this study we used bottled water and Klortabs (5 ppm) (Arrowmight Biosciences, U.K.) to eliminate the possibility of water borne spreading of bacterial pathogens and to provide a water supply with constant levels of chlorine. Water was changed twice a week. This study was carried out in accordance with UK legislation and approved by Pfizer's internal ethical review process.
Prior to commencing the study, all mice (40 mdr1a^−/− and 6 mdr1a^+/+) acclimatised for 14 days. […] A scoring system was devised with different weightings for different clinical signs (Table 1). The intention was that the score should reflect the severity of the colitis.
(§1) Following the acclimatisation period, mdr1a^−/− mice with mild and moderate disease scores (mild disease (0-3) was defined by absence of gain or mild body weight loss (<0.5 g) and no other symptoms, whereas moderate disease (4-10) was defined by similar symptoms as a previous group but with soft faeces or greater loss in body weight (>20%) were randomised into 4 groups and dosed subcutaneously (s.c.) with vehicle (water, n=8) or dexamethasone (0.05 mg/kg, n=9; 0.3 mg/kg, n=8 or 2 mg/kg, n=8) daily for 7 days. The 6 mdr1a^+/+ mice received vehicle (water). During the study period, one mouse from the group treated with 0.3 mg/kg dexamethasone was found dead and two were euthanised (one from the vehicle-treated group and one from the group treated with 0.05 mg/kg dexamethasone). At the end of the study all mice were euthanased. The colon and caecum from each mouse was removed and weighed. Each colon was then divided longitudinally so that one section could be processed for histological analysis and the other for cytokine measurement (see below).
(§2) Data were analysed for the 29 mdr1a^−/− and 6 mdr1a^+/+ mice, which completed the study. Differences between vehicle treated mdr1a^−/− and mdr1a^+/+ mice were analysed using a two sample t-test (assuming equal variance for IFN-γ, growth rate in the acclimatisation period and final weight, and unequal variance for IL-8, colon weight, caecum weight, colon to body weight ratio, caecum to body weight ratio and growth rate during the study period). The effects of dexamethasone treatment were analysed using analysis of variance (ANOVA) allowing for culling group.

IL-8 = IL-8 levels in homogenised colon samples (ELISA); details: mdr1a−/− mice
Protocol: as §1
(§3) Each individual colon sample was homogenised three times for 30 seconds at 4° C. in 3ml of ice-cold Krebs' solution (Sigma Chemical Co. U.K.). Samples were centrifuged for 15 min at 35,000 g (4° C.) and supernatants were removed. IL-8 and IFN-γ levels were then measured by ELISA kits (R&D systems, U.K.). The detection limits of these kits were 31.2-2000 pg/ml. Protein levels was assayed in supernatants using the method described by Bradford (Bradford, M. (1976) Analyt. Biochem. 72, 248-254), utilising Bradford Reagent (Sigma).
as §2

IFN-γ = IFN-γ levels in homogenised colon samples (ELISA); details: mdr1a−/− mice
Protocol: as §1, §3, §2

[1] = system: colon/rectum of mdr1a^−/− mice; assay: Histological grading of colitis severity (score 0-4); details: for Colitis severity score graded histologically (Mean ± s.e.m.): scale 0-4
Protocol: as §1
The animals were necropsied. The colon/rectum and caecum were weighed and colon/rectum, caecum, ileum, jejunum, duodenum, stomach, mesenteric nodes, thymus, kidney, spleen were sampled and fixed in 10% buffered formalin solution. The colon/rectum and ileum were prepared in a “Swiss roll” technique (Moolenbeek, C. & Ruitenberg E. J. (1981) Lab Anim 15(1):57-9) to evaluate their whole longitudinal section one slide. Tissues were processed routinely in an automatic tissue processor, embedded in paraffin, sectioned at 4-6 μm, stained with hematoxylin and eosin (HE), and examined histologically. The colitis was graded from 0 (no significant findings) to 4 (severe proliferative and ulcerative inflammation) according to the extent of the findings and severity of mucosal changes (Table 2) by a blinded observer. In addition, the mucosal height of the whole colon/rectum were assessed about every 100 μm with a standard interactive microcomputer-assisted image analysis system.
Colitis severity score is an ordered categorical measure graded on a scale of 0-4. This type of data is generally analysed using a proportional odds model, however due to the small sample size this was not appropriate and ANOVA was used. This makes the assumption of having normally distributed data, which although we had categorical data, seemed to hold approximately true. All analysis was carried out using Genstat 5 Release 4.2 for Windows.

[2] = 0.05 mg/kg s.c. daily for 7 days
[3] = 0.3 mg/kg s.c. daily for 7 days
[4] = lower doses (0.05 and 0.3 mg/kg s.c.)

`C[C@@H]1C[C@H]2[C@@H]3CCC4=CC(=O)C=C[C@]4(C)[C@@]3(F)[C@@H](O)C[C@]2(C)[C@@]1(O)C(=O)CO` [dexamethasone] was tested, and the “Clinical score (Mean ± s.e.m.)” value (mdr1a^−/− mice; [2]) was 56 ± 8.9, the “Body weight (Mean ± s.e.m.)” value (mdr1a^−/− mice; [2]) was 22.2 ± 0.77 g and the “Growth rate (Mean ± s.e.m.)” value (mdr1a^−/− mice; [2]) was -0.427 ± 0.099 g/day. The “Clinical score (Mean ± s.e.m.)” value (mdr1a^−/− mice; [3]) was 37 ± 8.9, the “Body weight (Mean ± s.e.m.)” value (mdr1a^−/− mice; [3]) was 22.6 ± 0.77 g and the “Growth rate (Mean ± s.e.m.)” value (mdr1a^−/− mice; [3]) was -0.260 ± 0.099 g/day. For the same compound, the “Clinical score (Mean ± s.e.m.)” value (mdr1a^−/− mice; 2 mg/kg s.c. daily for 7 days) was 32 ± 8.3, the “Body weight (Mean ± s.e.m.)” value (mdr1a^−/− mice; 2 mg/kg s.c. daily for 7 days) was 22.7 ± 0.72 g and the “Growth rate (Mean ± s.e.m.)” value (mdr1a^−/− mice; 2 mg/kg s.c. daily for 7 days) was -0.271 ± 0.093 g/day. The “Colon to body weight ratio” value (mdr1a^−/− mice; 2 mg/kg s.c. daily for 7 days, vehicle 3.0±0.28, P=0.017) was 2.1±0.26, the Absolute colon weight (mdr1a^−/− mice; 2 mg/kg s.c. daily for 7 days, vehicle 691±52 mg, P<0.01) was 456 ± 48 mg and the “Effect on overall clinical scores of colitis” value (mdr1a^−/− mice; 0.05-2 mg/kg s.c.) was “no effect”. For the same compound, the “Effect on final body weight” value (mdr1a^−/− mice; any of the doses used) was “no significant effect”, the “Effect on growth rate” value (mdr1a^−/− mice; any of the doses used) was “no significant effect” and the “Effect on absolute colon weight vs. vehicle” value (mdr1a^−/− mice; [4]) was “no significant effect”. For the same compound, the “Effect on colon to body weight ratio vs. vehicle” value (mdr1a^−/− mice; [4]) was “no significant effect”, the “IL-8 level in homogenised colon (Mean ± s.e.m)” value (“IL-8 level in homogenised colon” for short) (IL-8; [2]) was 317 ± 65.7 pg/mg protein and the “IL-8 level in homogenised colon” value (IL-8; [3]) was 264 ± 65.7 pg/mg protein. The “IL-8 level in homogenised colon” value (IL-8; 2 mg/kg s.c. daily for 7 days) was 220 ± 61.5 pg/mg protein, the “Effect on IL-8 levels in homogenised colons” value (IL-8; any of the doses used) was “no effect” and the “IFN-γ level in homogenised colon (Mean ± s.e.m)” value (from here on “IFN-γ level in homogenised colon”) (IFN-γ; [2]) was 177 ± 32.6 pg/mg protein. The “IFN-γ level in homogenised colon” value (IFN-γ; [3]) was 169 ± 32.6 pg/mg protein, the “IFN-γ level in homogenised colon” value (IFN-γ; 2 mg/kg s.c. daily for 7 days) was 100 ± 30.5 pg/mg protein and the “Effect on IFN-γ levels in homogenised colons” value (IFN-γ; any of the doses used) was “no effect”. For the same compound, the “Colitis severity score graded histologically (Mean ± s.e.m.)” value [1, 2] was 4.0 ± 0.42, the “Colitis severity score, difference from vehicle” value ([1]; 0.05 mg/kg s.c., p >0.05) was 0.3 and the “Colitis severity score graded histologically (Mean ± s.e.m.)” value [1, 3] was 3.1 ± 0.42. For the same compound, the “Colitis severity score, difference from vehicle” value ([1]; 0.3 mg/kg s.c., p >0.05) was −0.6, the “Colitis severity score graded histologically (Mean ± s.e.m.)” value ([1]; 2 mg/kg s.c. daily for 7 days) was 2.4 ± 0.39 and the “Colitis severity score, difference from vehicle” value ([1]; 2 mg/kg s.c., p <0.05) was −1.3.

Source: patent US20040219228A1, “Animal model for inflammatory bowel disease” (Pfizer Inc, priority 2003, published 2004)
